Experimental findings from the NIST ThermoML archive (doi:10.1016/j.jct.2013.11.004) are described below.

For the data set the following is noted: DTA.

± gives the expanded uncertainty stated by the source.

Consider `CCC(=O)[O-].CCn1cc[n+](C)c1` [1-ethyl-3-methylimidazolium propionate], for which the Glass transition temperature is -83.17 ± 4 °C.
With `CCC(=O)[O-].CCCn1cc[n+](C)c1` [1-propyl-3-methylimidazolium propionate], the Glass transition temperature was -82.92 ± 4 °C.
